Assay results reported in US20240182465A1 (GENFLEET THERAPEUTICS (SHANGHAI) INC., priority 2021, published 2024).
Where a name gives a salt, the structure may show the parent alone.

Assays:
HPK1 [1] = target: T1, HPK1 (Homo sapiens, UniProt Q92918); test: HPK1 kinase activity assay (ADP-Glo); conditions: HPK1 Kinase activity IC50 (nM), 1 nM HPK1, 10 μM ATP, 0.1 μg/μL MBP
T1 sequence (Q92918 1-346 limits assumed): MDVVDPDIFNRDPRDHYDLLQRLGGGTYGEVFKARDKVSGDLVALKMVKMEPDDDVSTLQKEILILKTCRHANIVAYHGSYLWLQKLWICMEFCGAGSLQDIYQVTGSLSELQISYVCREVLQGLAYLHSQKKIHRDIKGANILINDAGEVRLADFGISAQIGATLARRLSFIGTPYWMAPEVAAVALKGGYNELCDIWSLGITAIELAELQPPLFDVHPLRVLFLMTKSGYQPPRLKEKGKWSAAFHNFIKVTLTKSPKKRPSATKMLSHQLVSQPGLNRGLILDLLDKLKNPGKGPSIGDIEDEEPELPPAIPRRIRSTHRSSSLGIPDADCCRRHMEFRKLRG
Protocol: Preparation of buffer: 1× reaction buffer (40 mM Tris-HCl, 20 mM MgCl2, 0.01% Brij35, 50 μM DTT, 0.1 mg/ml BSA) was prepared using sterile water, which was prepared and used on the day of the experiment.
(§1) Preparation of 1000× drug stock plate: a 1000× compound stock plate was prepared. […] The compound stock plate was sealed with a sealing film and stored in a −20° C. refrigerator for later use.
Compound preparation and dosing: the 1000× drug stock plate was taken and melted at room temperature in the dark. Then 5× drug intermediate plate was prepared using reaction buffer and mixed well. 2 μL was transferred from the 5× drug intermediate plate into a 384-well plate, and negative control well and positive control well (in which 2 μL reaction buffer containing 0.5% DMSO was added) were set. Each point was repeated twice.
Preparation and incubation of reaction mixture: HPK1 protein was diluted to a 2.5× working solution with reaction buffer. 4 μL 2.5×HPK1 protein was added to each well containing test compound and positive control well, and 4 μL of reaction buffer without HPK1 protein was added to the negative control well. The obtained mixture was centrifuged at 1000 rpm for 1 min and then incubated in a 20° C. incubator for 15 min. A 2.5× mixed working solution of MBP protein and ATP was prepared with reaction buffer at concentrations of 0.5 μg/μL and 50 PM, respectively. 4 μL of the mixed working solution of MBP and ATP was added to each well, centrifuged at 1000 rpm for 1 min, and then incubated in a 20° C. incubator for 90 min.
ADP-Glo detection and reading plate: 10 μl ADP-Glo was added to each well of the test plate. The resulting mixture was centrifuged at 1000 rpm for 1 min and incubated in a 20° C. incubator for 60 min. Then 10 μL of the final incubation solution was transferred from the test plate to a new 384-well plate. 10 μL of kinase detection reagent was added to each well, centrifuged at 400 g for 1 min, and incubated in a 20° C. incubator for 60 min. Chemiluminescent signals were read by a microplate reader.

HPK1 [2] = target: HPK1 (Homo sapiens, UniProt Q92918); test: SLP76 phosphorylation assay (intracellular HPK1 inhibitory activity, p-SLP76 Ser376 sandwich ELISA); conditions: p-SLP76 IC50(nM), Jurkat, Clone E6-1 cells; 1 h compound pre-incubation, anti-CD3 beads stimulation 20 min; SLP76 phosphorylation at S376
Target sequence in this assay (Q92918 whole entry): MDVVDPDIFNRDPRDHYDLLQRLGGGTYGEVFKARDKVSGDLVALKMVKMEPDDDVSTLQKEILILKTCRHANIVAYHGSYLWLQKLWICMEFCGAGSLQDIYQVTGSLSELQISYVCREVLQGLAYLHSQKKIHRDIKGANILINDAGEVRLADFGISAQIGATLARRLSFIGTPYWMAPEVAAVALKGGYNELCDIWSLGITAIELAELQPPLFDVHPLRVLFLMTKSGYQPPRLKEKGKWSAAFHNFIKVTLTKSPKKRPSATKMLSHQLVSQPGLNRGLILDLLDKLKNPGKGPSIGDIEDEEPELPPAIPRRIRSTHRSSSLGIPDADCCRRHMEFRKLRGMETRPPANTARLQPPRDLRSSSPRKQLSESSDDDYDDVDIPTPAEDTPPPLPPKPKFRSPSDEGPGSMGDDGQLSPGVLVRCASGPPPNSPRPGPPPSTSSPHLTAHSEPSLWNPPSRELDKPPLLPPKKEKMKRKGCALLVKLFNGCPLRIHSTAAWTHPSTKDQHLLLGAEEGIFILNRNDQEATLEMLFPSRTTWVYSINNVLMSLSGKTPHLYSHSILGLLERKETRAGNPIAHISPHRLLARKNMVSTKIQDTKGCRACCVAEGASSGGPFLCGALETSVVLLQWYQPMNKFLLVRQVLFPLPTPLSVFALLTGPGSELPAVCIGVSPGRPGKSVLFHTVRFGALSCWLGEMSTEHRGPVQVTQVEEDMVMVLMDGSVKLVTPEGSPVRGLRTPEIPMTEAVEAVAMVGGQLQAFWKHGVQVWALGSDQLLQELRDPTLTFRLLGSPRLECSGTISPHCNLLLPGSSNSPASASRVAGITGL
Protocol: Intracellular HPK1 inhibitory activity was tested by the detection of SLP76 phosphorylation at S376.
as §1
Preparation of Beads wash buffer: 0.1 mL FBS and 0.4 mL 0.5 M EDTA (with a final concentration of 2 mM) were added to 100 mL PBS and stored in a 4° C. refrigerator for later use.
100× Protease Inhibitor Cocktail in 1/20 total volume was added and stored on wet ice for later use. The buffer was ready to use.
Cell inoculation and dosing: the 1000× drug stock plate was taken and melted at room temperature in the dark. […] Jurkat cells in the logarithmic growth phase were selected and collected. […] The cells were inoculated into a 96-well plate (the volume was 90 μL per well), and a blank control well (without cells inoculation, and in which 110 μL of medium was added) was set. 10 μL of a drug-containing culture medium (10×) was transferred from the 10× drug intermediate plate into the 96-well cell plate (with a final concentration of 0.1% DMSO), and set a DMSO control group (in which 0.1% DMSO was added to the treated cells), a stimulated control group (in which 10 μL of culture medium was added to treat cells) and an unstimulated group (in which 10 μL of culture medium was added to treat cells). The wells were duplicated, gently patted, mixed, and then placed into a 5% CO2 incubator at 37° C. for 1 h.
Anti-CD3 beads stimulation: Dynabeads anti-human CD3 was taken, shaken, and mixed for 60 s. The required volume of beads was pipetted, and an equal volume or at least 1 mL of washing solution was added to wash once. Fresh complete medium was then added to resuspend and adjust the density of the beads to 4×10^7/mL, and the beads were placed on ice for later use. At the end of drug pre-incubation, the cell culture plate was taken out. 10 μL Dynabeads anti-human CD3 was added to each well to treat the cells, and 10 μL the culture medium was added to the unstimulated group. The cell culture plate was shaken to mix well at 2500 rpm for 10 s, and then placed into a 5% CO2 incubator at 37° C. and continued to culture for 20 min.
Detection of p-SLP76 protein level. PathScan Phospho-SLP-76 (Ser376) Sandwich ELISA Kit was applied to detect p-SLP76 protein level. At the end of the Anti-CD3 beads stimulation, the cell culture plate was removed from the incubator. […] After lysis, the cell culture plate was centrifuged at 4° C., 400×g for 5 min. 25 μL of sample and 75 μL of sample diluent were added to each well, and the plate was placed in a 5% CO2 incubator at 37° C. for 2 h. The subsequent detection steps were carried out following the kit instructions, and the absorbance (OD value) of each well was read at 450 nm by a microplate reader.

Row | IC50 (HPK1 [1]) [nM] | IC50 (HPK1 [2]) [nM] | SMILES
1 | 231 | > 10000 | Cc1c[nH]c2ncc(-c3cc([C@@H]4CCCN4)c4cnccc4c3)cc12 (single isomer, unassigned) [Compound Z3-1]
2 | 3.37 | 604 | Cc1c[nH]c2ncc(-c3cc([C@H]4CCCN4)c4cnccc4c3)cc12 (single isomer, unassigned) [Compound Z3-2]
3 | 163 | – | Nc1ncc(-c2cc3c(c([C@H]4CCCN4)c2)COCC3)cc1-c1cn[nH]c1 (single isomer, unassigned) [Compound Z93-1]
4 | 0.71 | 235 | Nc1ncc(-c2cc3c(c([C@@H]4CCCN4)c2)COCC3)cc1-c1cn[nH]c1 (single isomer, unassigned) [Compound Z93-2]
5 | 18.4 | – | CC(C)c1c[nH]c2ncc(-c3cc([C@H]4CCCN4)c4cnccc4c3)cc12 (single isomer, unassigned) [Compound Z95-1]
6 | 1.45 | 623 | CC(C)c1c[nH]c2ncc(-c3cc([C@@H]4CCCN4)c4cnccc4c3)cc12 (single isomer, unassigned) [Compound Z95-2]
7 | 120 | – | Cc1c[nH]c2ncc(-c3cc4c(c([C@H]5CCCN5)c3)COCC4)cc12 (single isomer, unassigned) [Compound Z97-1]
8 | 0.67 | 164 | Cc1c[nH]c2ncc(-c3cc4c(c([C@@H]5CCCN5)c3)COCC4)cc12 (single isomer, unassigned) [Compound Z97-2]
9 | 42.7 | – | N#CCc1c[nH]c2ncc(-c3cc4c(c([C@H]5CCCN5)c3)COCC4)cc12 (single isomer, unassigned) [Compound Z101-1]
10 | 0.99 | 111 | N#CCc1c[nH]c2ncc(-c3cc4c(c([C@@H]5CCCN5)c3)COCC4)cc12 (single isomer, unassigned) [Compound Z101-2]
11 | 0.62 | 126 | C[C@H](C#N)c1c[nH]c2ncc(-c3cc4c(c([C@@H]5CCCN5)c3)COCC4)cc12 (single isomer, unassigned) [Compound Z104-1]
12 | 0.74 | 197 | C[C@@H](C#N)c1c[nH]c2ncc(-c3cc4c(c([C@@H]5CCCN5)c3)COCC4)cc12 (single isomer, unassigned) [Compound Z104-2]
13 | 1.06 | 390 | CC(=O)N1CCc2cc(-c3cnc4[nH]cc(C)c4c3)cc([C@@H]3COCCN3)c2C1 (single isomer, unassigned) [Compound Z119-1]
14 | 90 | – | CC(=O)N1CCc2cc(-c3cnc4[nH]cc(C)c4c3)cc([C@H]3COCCN3)c2C1 (single isomer, unassigned) [Compound Z119-2]
15 | 154 | – | CNC(c1ccccc1)c1cc(-c2cnc3[nH]cc(C)c3c2)cc2c1COCC2 (single isomer, unassigned) [Compound Z234-1]
16 | > 1000 | – | CNC(c1ccccc1)c1cc(-c2cnc3[nH]cc(C)c3c2)cc2c1COCC2 (single isomer, unassigned) [Compound Z234-2]
17 | 0.58 | – | Cc1c[nH]c2ncc(-c3cc4c(c([C@@H]5COCCN5)c3)CN(C(=O)[C@](C)(O)C(F)(F)F)CC4)cc12 (single isomer, unassigned) [Compound Z309-1]
18 | 4.34 | 853 | Cc1c[nH]c2ncc(-c3cc(C4CCCN4)c4cnccc4c3)cc12 (stereo not drawn) [Compound Z3, 6-(3-methyl-1H-pyrrolo[2,3-b]pyridin-5-yl)-8-(pyrrolidin-2-yl)isoquinoline formate]

Row | IC50 (HPK1 [1]) [nM] | IC50 (HPK1 [2]) [nM] | SMILES
19 | 48.7 | 3570 | CN1CCc2cc(-c3cnc(N)c(-c4cnn(C)c4)c3)cc(C3CCCN3)c2C1 (stereo not drawn) [Compound Z4, 3-(1-methyl-1H-pyrazol-4-yl)-5-(2-methyl-8-(pyrrolidin-2-yl)-1,2,3,4-tetrahydroisoquinolin-6-yl)pyridin-2-amine]
20 | 0.55 | 265 | COC(=O)N1CCc2cc(-c3cnc4[nH]cc(C)c4c3)cc([C@@H]3CCCN3)c2C1 [Compound Z34-1]
21 | 2.97 | 719 | Cc1ncc(N2CCc3c(cc(-c4cnc5[nH]cc(C)c5c4)cc3[C@@H]3CCCN3)C2)s1 [Compound Z38-1, (S)-7-(3-methyl-1H-pyrrolo[2,3-b]pyridin-5-yl)-2-(2-methylthiazol-5-yl)-5-(pyrrolidin-2-yl)-1,2,3,4-tetrahydroisoquinoline]
22 | 0.6 | 401 | CN(C)C(=O)c1ccc(-c2c[nH]c3ncc(-c4cc5c(c([C@@H]6CCCN6)c4)COCC5)cc23)cn1 [Compound Z54-1, (S)—N,N-dimethyl-5-(5-(8-(pyrrolidin-2-yl)isochroman-6-yl)-1H-pyrrolo[2,3-b]pyridin-3-yl)pyridine carboxamide]
23 | 0.38 | 91.3 | Cc1c[nH]c2ncc(-c3cc4c(c([C@@H]5CCCN5)c3)CCN(S(C)(=O)=O)C4)cc12 [Compound Z88-1, (S)-7-(3-methyl-1H-pyrrolo[2,3-b]pyridin-5-yl)-2-(methylsulfonyl)-5-(pyrrolidin-2-yl)-1,2,3,4-tetrahydroisoquinoline]
24 | 1.62 | 439 | Nc1ncc(-c2cc3c(c(C4CCCN4)c2)COCC3)cc1-c1cn[nH]c1 (stereo not drawn) [Compound Z93, 3-(1H-pyrazol-4-yl)-5-(8-(pyrrolidin-2-yl)isochroman-6-yl)pyridin-2-amine formate]
25 | 257 | – | Cc1c[nH]c2ncc(-c3cc4c(c(CN5CCOCC5)c3)COCC4)cc12 [Compound Z115, 4-((6-(3-methyl-1H-pyrrolo[2,3-b]pyridin-5-yl)isochroman-8-yl)methyl)morpholine]
26 | 843 | – | Cc1c[nH]c2ncc(-c3cc4c(c(N5CCC[C@@H]5CO)c3)COCC4)cc12 [Compound Z116-1, (R)-(1-(6-(3-methyl-1H-pyrrolo[2,3-b]pyridin-5-yl)isochroman-8-yl)pyrrolidin-2-yl)methanol]
27 | > 1000 | – | Cc1c[nH]c2ncc(-c3cc4c(c(N5CCC[C@H]5CO)c3)COCC4)cc12 [Compound Z116-2, (S)-(1-(6-(3-methyl-1H-pyrrolo[2,3-b]pyridin-5-yl)isochroman-8-yl)pyrrolidin-2-yl)methanol]
28 | 168 | – | Cc1c[nH]c2ncc(-c3cc4c(c([C@@H]5CCCN5)c3)CN(c3ccccn3)CC4)cc12 [Compound Z128, (S)-6-(3-methyl-1H-pyrrolo[2,3-b]pyridin-5-yl)-2-(pyridin-2-yl)-8-(pyrrolidin-2-yl)-1,2,3,4-tetrahydroisoquinoline]
29 | – | 239 | Nc1ncc(-c2cc3c(c([C@@H]4CCCN4)c2)COCC3)cc1-c1nncs1 [Compound Z239, 5-[8-[(S)-pyrrolidin-2-yl]isochroman-6-yl]-3-(1,3,4-thiadiazol-2-yl)pyridin-2-amine]
30 | – | 770 | Cc1c[nH]c2ncc(-c3cc4c(c(C5CC6(CC6)CN5)c3)COCC4)cc12 (stereo not drawn) [Compound Z240-1, 5-(8-(5-azaspiro[2.4]heptan-6-yl)isochroman-6-yl)-3-methyl-1H-pyrrolo[2,3-b]pyridine]
31 | 2.28 | – | Cc1c[nH]c2ncc(-c3cc4c(c([C@@H]5CC6(CC6)CN5)c3)COCC4)cc12 [Compound Z240]
32 | – | 2030 | Cc1c[nH]c2ncc(-c3cc4c(c([C@@H]5CCCN5)c3)CN(C(=O)c3cnn(CCO)c3)CC4)cc12 [Compound Z281, (S)-(1-(2-hydroxyethyl)-1H-pyrazol-4-yl)(6-(3-methyl-1H-pyrrolo[2,3-b]pyridin-5-yl)-8-(pyrrolidin-2-yl)-3,4-dihydroisoquinolin-2(1H)-yl)methanone]
33 | – | 271 | Cc1cn(C2CC2)nc1C(=O)N1CCc2cc(-c3cnc4[nH]cc(C)c4c3)cc([C@@H]3CCCN3)c2C1 [Compound Z342, (S)-(1-cyclopropyl-4-methyl-1H-pyrazol-3-yl)-[6-(3-methyl-1H-pyrrolo[2,3-b]pyridin-5-yl)-8-[pyrrolidin-2-yl]-3,4-dihydro-2(1H)-isoquinolin-yl]methanone]
34 | – | 319 | Cc1cn(C2CC2)nc1C(=O)N1CCc2cc(-c3cnc4[nH]cc(C)c4c3)cc([C@@H]3CCCN3)c2C1 [Compound Z347, (S)-(1-cyclopropyl-4-methyl-1H-pyrazol-3-yl)-[6-(3-methyl-1H-pyrrolo[2,3-b]pyridin-5-yl)-8-[pyrrolidin-2-yl]-3,4-dihydro-1H-isoquinolin-2-yl]methanone]
35 | – | 3.3 | Cc1c[nH]c2ncc(-c3cc4c(c([C@@H]5CCCN5)c3)CN(C(=O)Nc3cn[nH]c3)C4)cc12 [Compound Z385]

Row | SMILES | IC50 (HPK1 [1]) [nM] | IC50 (HPK1 [2]) [nM]
36 | CC(=O)N1CCc2cc(-c3cnc4[nH]cc(C)c4c3)cc([C@H]3CCCN3)c2C1 (single isomer, unassigned) [Compound Z98-1] | 49.4 | –
37 | CC(=O)N1CCc2cc(-c3cnc4[nH]cc(C)c4c3)cc([C@@H]3CCCN3)c2C1 (single isomer, unassigned) [Compound Z98-2] | 0.5 | 152
38 | Cc1c[nH]c2ncc(-c3cc4c(c([C@@H]5CCCN5)c3)CCOC4)cc12 [Compound Z75-1] | 1.7 | 475
39 | Cc1c[nH]c2ncc(-c3cc4c(c([C@@H]5CCCN5)c3)CN(C(=O)N3C5CCC3COC5)CC4)cc12 [Compound Z388, (3-oxa-8-azabicyclo[3.2.1]octan-8-yl)(6-(3-methyl-1H-pyrrolo[2,3-b]pyridin-5-yl)-8-((S)-pyrrolidin-2-yl)-3,4-dihydroisoquinolin-2(1H)-yl)methanone] | – | 43.1
